Source: ChEMBL document CHEMBL5131441, “De-novo designed β-lysine derivatives can both augment and diminish the proliferation rates of E. coli through the action of Elongation Factor P” (Bioorg Med Chem Lett, 2022)
Activity calls are given as the source filed them. The calls are words filed in the database; no cut-off is given here.

Tests used:
Escherichia coli [1] = assay: Antibacterial activity against Escherichia coli K12 harbouring wild type elongation factor P at 500 uM incubated for 240 mins by turbidity based analysis; assay type: functional, organism-based
Escherichia coli [2] = assay: Antibacterial activity against Escherichia coli K12 harbouring elongation factor P deltayjeK variant assessed as reduction in bacterial growth at 500 uM incubated for 240 mins by turbidity based analysis; assay type: functional, organism-based
[3] = Cytotoxicity against HEK293 cells assessed as inhibition of cell growth; assay type: toxicity, cell-based; settings: human
[4] = Cytotoxicity against HEK293 cells assessed as cell survival rate at 50 uM relative to control; assay type: toxicity, cell-based; settings: human, read-out: Survival
[5] = Cytotoxicity against HEK293 cells assessed as cell survival rate at 500 uM relative to control; assay type: toxicity, cell-based; settings: human, read-out: Survival
Escherichia coli [6] = assay: Antibacterial activity against Escherichia coli K12 harbouring elongation factor P deltayjeK variant assessed as restoration in bacterial growth at 500 uM incubated for 240 mins in presence of gentamicin by turbidity based analysis; assay type: functional, organism-based
Escherichia coli [7] = assay: Antibacterial activity against Escherichia coli K12 harbouring elongation factor P deltayjeK variant assessed as reduction in bacterial growth incubated for 240 mins by turbidity based analysis; assay type: functional, organism-based
Escherichia coli [8] = assay: Antibacterial activity against Escherichia coli K12 harbouring elongation factor P deltapoxA variant assessed as reduction in bacterial growth at 500 uM incubated for 240 mins by turbidity based analysis; assay type: functional, organism-based
Escherichia coli [9] = assay: Antibacterial activity against Escherichia coli K12 harbouring elongation factor P delta-efp variant assessed as reduction in bacterial growth at 500 uM incubated for 240 mins by turbidity based analysis; assay type: functional, organism-based

Molecule | Activity (Escherichia coli [2]) | Activity (Escherichia coli [6]) | further results
NCCCCCCCCCCNCCCC(N)CC(=O)O (racemic) | Active |  | Activity (Escherichia coli [1]): Active; IC50 [3]: 250 µM; viability at 50 µM [4]: 81%; viability at 500 µM [5]: 0%
NCCCCCCCCNCCCC(N)CC(=O)O (racemic) |  | Active | 
CCNCCCC(N)CC(=O)O (racemic) |  | Active | 
GENTAMICIN | Active |  | MIC (Escherichia coli [7]): 6 µg/mL
CCCNCCCC(N)CC(=O)O (racemic) |  | Active | 
CNCCCC(N)CC(=O)O (racemic) |  | Active | 
CCCCCCNCCCC(N)CC(=O)O (racemic) |  | Active | IC50 [3]: 110 µM
NCCCCCCCCCCCNCCCC(N)CC(=O)O (racemic) |  |  | Activity (Escherichia coli [1]): Active
NCCCCCCCCCCCCNCCCC(N)CC(=O)O (racemic) | Active |  | Activity (Escherichia coli [1]): Active; Activity (Escherichia coli [8]): Active; Activity (Escherichia coli [9]): Active; viability at 50 µM [4]: 14%
CC(=O)NCCCC(N)CC(=O)O (racemic) |  | Active | 
NC(CCCNCc1ccccc1)CC(=O)O (racemic) |  | Active | 
NCCCCC(N)CC(=O)O (racemic) | Active |  | 
